Test results as given in patent US20230146455A1, “TREATMENT OF INFLAMMATORY DISEASES WITH PEPTIDES AND PHARMACEUTICAL COMPOSITIONS” (Yuyu Pharma, Inc., priority 2020, published 2023).
Values joined by “and” are separate entries in the source; they are usually repeats but may differ in a detail not shown here. Equal values may be shown once. Read-outs that look alike come from different tables or passages of the source. Where a SMILES comes first, the peptide text is derived from it. [ ]: non-standard residue; d: D form. Hyp = O=C(O)[C@@H]1C[C@@H](O)CN1

How the values were obtained:
[1] = tested on: IL-6 cytokine release in poly I:C stimulated primary human corneal epithelial cells; experiment: Soluble IL-6 cytokine release in poly I:C stimulated primary human corneal epithelial cells by ELISA (Example 6); type: cell-based
Description: To determine the effect of compound by assessing the soluble IL-6 cytokine release in poly I:C stimulated primary human corneal epithelial cells by ELISA. • Test System: Primary Human Corneal Epithelial cells • Assay Format: 96-well plate format • Method of Detection: Enzyme-linked immunosorbent assay • Assay Controls: Hinokitiol Assay protocol as shown below was used to determine the significant effect of test compounds. The data was statistically analyzed by one-way ANOVA with a Bonferroni post test comparing all the columns. The significance was represented by the p value.

[2] = Apparent permeability, 21 day cultured Caco-2 cell monolayer, bi-directional (Example 7); type: in vitro ADME; details: Caco-2, 2 μM, 120 minutes; for recovery at 120 min, 2 μM: human
Method: (§1) 10 mM stock solution of test compound was prepared in DMSO. 10 mM stock was diluted with 100% DMSO to prepare 0.2 mM, 0.2 mM stock was diluted with HBSS buffer to a final concentration of 2 μM.
(§2) Add 250 μL of DMEM to the basal compartment of 96 well multi-screen Caco-2 plates and seed 12000 cells/well (0.16×10^6 cells/ml) in all the apical wells required and 2 wells with only media as blank without cells. Place the Caco-2 plate in CO2 incubator at 37° C. for proliferation of cells.
(§3) The utilized media was replenished every alternate day by fresh medium. On 21st day, utilized medium was removed and washed twice with HBSS Buffer and incubated with HBSS buffer 30 min in incubator and initiated the assay.
(§4) 75 μL of test compound was added to apical wells and 250 μL of HBSS buffer with 1% DMSO was added to basal wells. Samples were collected at 120 min and processed as stated below.
(§5) 250 μL of test compound was added to basal wells and 75 μL of HBSS buffer with 1% DMSO was added to apical wells. Samples were collected at 120 min and processed as stated below.
(§6) Single point calibration curve in HBSS buffer was used. 100 μL of supernatant was diluted with 200 μL of water and submitted for LC-MS/MS analysis.
(§7) Efflux ratio=Papp of basal to apical samples/Papp of apical to basal samples
(§8) Recovery: {(dQ of Apical+dQ of Basal)/Standard dQ}*100

[3] = tested on: Caco-2 cells monolayer; experiment: as above; type: in vitro ADME
Method: as §1, §2, §3, §4, §5, §6, §7, §8

[4] = tested on: IL-6 release in human PBMCs stimulated by poly(I:C), LPS or PMA/Ionomycin; experiment: IL-6 ELISA in stimulated human PBMCs, 2nd pilot study (Example 8); type: cell-based; details: for IL-6 (ELISA), individual wells / IL-6 (ELISA), Mean: 24 hr
Method: Human PBMCs frozen in a cryopreserve was thawed, washed with Hank's Balanced Salt Solution containing 10% Fetal bovine serum, and seeded onto a 24-well plate at a density of 1×10^6 cells/well with culture RPMI media containing 10% Fetal bovine serum in growth media in a 24 well plate for 12, 24, and 48 hrs and maintained at 37° C. in an atmosphere of 95% air and 5% CO2.
Human PBMCs was pretreated with a test compound; YDE-011 at 30 uM, 1 μM for 2 h before stimulation. An equal volume of 0.5% DMSO was used as a vehicle control. […] The supernatants from treated cells were harvested at 24 h and placed in 96 well for Human IL-6 ELISAS measurement according to the manufacturer's instructions (Invitrogen, CA, USA). […]
IL-6 measurement was performed by the sandwich ELISA method. The capture antibody was coated on a 96-well plate (Corning™ Costar™ 9018, NY, USA) at 100 ul/well and incubated overnight at 4° C. The interaction was blocked at room temperature for 2 h to prevent non-specific binding of the antigen-antibody. Then, the plate was incubated overnight at 4° C. with 1:200 diluted cell supernatants and standard dilute serial dilutions at 100 ul/well. Detection antibody was dispensed into the plate at 100 ul/well, and then allowed to incubate at a room temperature for 1 h. Finally, streptavidin-HRP (100 ul/well) was incubated at room temperature for 30 min. […] The sample reading was measured at 450 nm wavelength and 570 nm, and the quantification of the sample was converted as concentration (ng/ml) based on the standard curve extrapolation.

[5] = tested on: rats with ELGE dry eye condition; experiment: Corneal damage induced by ELGE in rats; type: in vivo, rat

In the case of CC(C)C[C@H](NC(=O)CNC(=O)[C@H](CC(C)C)NC(=O)[C@H](CCC(N)=O)NC(=O)CNC(=O)[C@@H]1C[C@@H](O)CN1)C(=O)N[C@@H](C)C(=O)NCC(=O)N1CCC[C@H]1C(=O)N[C@@H](CCCCN)C(=O)O [YDE-011] (H-[Hyp]GQLGLAGPK-OH), the “Poly I:C induced IL-6 cytokine release (in words)” value [1] is reported as “attenuate Poly I:C induced of IL-6 cytokine release in a dose dependent manner”, the “tested concentrations with significant attenuation of IL-6 cytokine release” value [1] is reported as 30 μM, 10 μM, 1 μM and 0.1 μM and the recovery at 120 min, 2 μM ([2]; read-out: A to B % Recovery) is reported as 15%. The recovery at 120 min, 2 μM ([2]; read-out: B to A % Recovery) was 88.5%, the “Classification (Caco-2 Permeability)” value [3] was “LOW” and the “IL-6 induction in PBMCs (in words)” value ([4]; 1 uM, poly I:C, LPS or PMA/Ionomycin) was “effectively and significantly reduced IL-6 induction”. The “IL-6 (ELISA), individual wells” value ([4]; PBMC + LPS(5 ug/ml) + YDE-011 1 uM) was 14532.1 and 12561.2, the “IL-6 (ELISA), Mean” value ([4]; PBMC + LPS(5 ug/ml) + YDE-011 1 uM, LPS alone Mean 26093.3) was 13546.7 and the “IL-6 (ELISA), individual wells” value ([4]; PBMC + LPS(5 ug/ml) + YDE-011 30 uM) was 23199.5 and 18310.8. For the same molecule, the “IL-6 (ELISA), Mean” value ([4]; PBMC + LPS(5 ug/ml) + YDE-011 30 uM, LPS alone Mean 26093.3) was 20755.2, the “IL-6 (ELISA), individual wells” value ([4]; PBMC + PMA(1 ng/ml)/Ionomycin(0.5 ug/ml) + YDE-011 1 uM) was 2817.2 and 3828.2 and the “IL-6 (ELISA), Mean” value ([4]; PBMC + PMA(1 ng/ml)/Ionomycin(0.5 ug/ml) + YDE-011 1 uM, stimulant alone Mean 4075.5) was 3322.7. The “IL-6 (ELISA), individual wells” value ([4]; PBMC + PMA(1 ng/ml)/Ionomycin(0.5 ug/ml) + YDE-011 30 uM) was 3114.6 and 3025, the “IL-6 (ELISA), Mean” value ([4]; PBMC + PMA(1 ng/ml)/Ionomycin(0.5 ug/ml) + YDE-011 30 uM, stimulant alone Mean 4075.5) was 3069.8 and the “IL-6 (ELISA), individual wells” value ([4]; PBMC + Poly I:C(25 ug/ml) + YDE-011 1 uM) was 13701 and 12585.1. The “IL-6 (ELISA), Mean” value ([4]; PBMC + Poly I:C(25 ug/ml) + YDE-011 1 uM, Poly I:C alone Mean 21429.5) was 13143.1, the “IL-6 (ELISA), individual wells” value ([4]; PBMC + Poly I:C(25 ug/ml) + YDE-011 30 uM) was 39230.7 and 30634.7 and the “IL-6 (ELISA), Mean” value ([4]; PBMC + Poly I:C(25 ug/ml) + YDE-011 30 uM, Poly I:C alone Mean 21429.5) was 34932.7. For the same molecule, the “IL-6 induction in PBMCs (in words)” value ([4]; higher concentration) was “diminished at a higher concentration” and the “IL-6 levels induced by LPS or poly I:C (in words)” value ([4]; pilot studies) was “significantly reduced IL-6 levels induced by LPS or poly I:C”.
With CC(C)C[C@H](NC(=O)[C@H](CCC(N)=O)NC(=O)CNC(=O)[C@@H]1C[C@@H](O)CN1)C(=O)NCC(=O)O [YDE-043] (H-[Hyp]GQLG-OH; N-terminus and C-terminus assumed) the “Poly I:C induced IL-6 cytokine release (in words)” value [1] was “attenuate Poly I:C induced of IL-6 cytokine release in a dose dependent manner”, the “tested concentrations with significant attenuation of IL-6 cytokine release” value [1] was 30 μM, 10 μM, 1 μM and 0.1 μM and the recovery ([2]; read-out: A to B % Recovery) was 34%. The recovery ([2]; read-out: B to A % Recovery) was 67.2%, the “Classification (Caco-2 Permeability)” value [3] was “LOW” and the “corneal damage induced by ELGE (in words)” value [5] was “effective in improving corneal damaged induced by ELGE”.
